Laboratory results reported in patent US20210100859A1, “HERPES SIMPLEX VIRUS (HSV) ANTICANCER THERAPIES” (priority 2019, published 2021).

Legend:
[1] = tested on: TR127 cells; experiment: Virus spread: GFP+ RAMBO infected cells by flow cytometry; assay type: cell-based, human; details: TR127, RAMBO MOI=0.1 1 hr then CP 2 μM 16 hr; presence vs absence of CP
Procedure: FIGS. 1A-1J: RAMBO increases cisplatin accumulation in cisplatin-resistant ovarian cancer cells. (FIG. 1A) Representative histogram (left) and quantification (right) of percentage of GFP^+ infected cisplatin resistant ovarian cancer cells. TR127 cells infected with RAMBO (MOI=0.1) for 1 hr and then treated with CP (2 μM) for 16 hr. Data shown are mean percentage of GFP^+ RAMBO infected TR127 cells (±s.d) analyzed by flow cytometry (n=3/group). (FIG. 1B) Quantification of intracellular CP retained inside platin resistant OC cells treated with/without RAMBO. OVCAR8, TR127 and TR182 were treated with/without RAMBO (MOI=0.1) for one hour and then incubated with 2.5 μM Texas-red labeled CP. Twenty-four hours post-infection CP accumulation in cells was analyzed by flow cytometry. Data shown are mean fluorescence intensity (MFI) of Texas-red labeled CP (±s.d., n=3/group). […] Briefly, RNA harvested from OVTOKO cells treated with RAMBO (MOI=1) for 16 hr was analyzed by RNAseq. […] (FIG. 1I) Quantification of Texas-red labeled CP accumulation in TR127 cells knocked down for either ATP7B, ATP11B, or both was analyzed by flow cytometry (n=3/group). (FIG. 1J) Quantification of Texas-red labeled CP accumulation in OVTOKO cells overexpressing (OE) both ATP11B and ATP7B, or control (Ctl). Cells were analyzed by flow cytometry. […]

[2] = tested on: ATP11B and ATP7B; experiment: Western blot of efflux proteins; assay type: cell-based, human; details: TR127 and TR182 cells treated with RAMBO and/or CP

`N.N.[Cl][Pt][Cl]` [CP, cisplatin] was tested, and the “GFP expression (GFP positive tumor cells as indicator of infection)” value [1] was “no difference” and the “protein expression of ATP11B and ATP7B” value [2] was “no effect”.
